Data taken from US20150160214A1, “Quantitation of Cellular Adhesion Dynamics Across Immobilized Receptors Under Rheological Shear Flow” (Mayo Foundation for Medical Education and Research, priority 2013, published 2015).
Several values for one entry are separate records, joined by “and”; a condition that tells them apart may be missing. Equal values may be shown once.

Experiments:
[1] = system: T1, platelet GP1bα (Homo sapiens); assay: Platelet pause times and translocation velocities on immobilized A1 under shear flow, parallel-plate flow chamber (Example 1); type: cell-based; conditions: 300 μM peptide incubated with immobilized A1-1261; 66 μM in whole blood and buffer
T1 construct: perfused at low shear to enable platelets to attach to the surface immobilized domains; endogenous in cells; host or cells: platelets in citrated whole blood of healthy donors
T1 sequence (P04275 1261-1471): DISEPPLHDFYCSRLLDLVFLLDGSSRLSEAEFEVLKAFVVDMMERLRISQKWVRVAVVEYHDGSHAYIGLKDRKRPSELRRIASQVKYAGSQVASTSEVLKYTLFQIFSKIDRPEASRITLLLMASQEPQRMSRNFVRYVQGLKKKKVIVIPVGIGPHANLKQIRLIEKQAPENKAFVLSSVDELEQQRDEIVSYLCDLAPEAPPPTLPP
From the text: (§1) To understand the effect of the N-terminal peptide on the function of the A1-domain of vWF, the protein was expressed with (A1-1238) and without the N-terminal peptide (A1-1261). The inventor used a flow chamber to measure the dynamics of platelet interactions with A1-1238 and A1-1261. Each domain variant was immobilized on glass slides with a modified Cu^2+ chelating chemistry that enabled surface capture via the N-terminally fused histidine tag. This method ensured reproducible capture of the proteins eliminating possible structural issues associated with nonspecific immobilization on plastic or glass. The slides were completely inert to platelets. Next, 1 mL of citrated whole blood followed by Tris buffered saline was perfused at low shear to enable platelets to attach to the surface immobilized domains. After red cells were perfused away with buffer, the translocation of the remaining attached platelets over the surfaces was recorded at each shear rate and the velocities and pause times calculated from the coordinate data of each platelet on the surface as described in the methods. […] In addition, the translocation velocities were increased for A1-1238 relative to A1-1261. To determine if this N-terminal sequence could inhibit the catch bond when free in solution, the inventor incubated surface immobilized A1-1261 with excess free peptide and added the free peptide to 1 mL of whole blood and to our perfusion buffer and performed the assay.
(§2) Determination of platelet pause times. Determination of platelet pause times A Glycotech† rectangular parallel-plate flow chamber was mounted to slides with a chelated Cu 21 surface obtained from Microsurfaces Inc. # to which the A1-1261 and A1-1238 domains in TBS were immobilized by the 63His-Tag. Citrated whole blood (1 mL) obtained from informed consent of healthy donors with approval from the Baylor College of Medicine institutional review board followed by buffer was perfused through the chamber at 300s21 for A1-1261 and 700s21 for A1-1238 shear rate to attach platelets to the surface immobilized proteins using a syringe driven variable flow rate pump. The shear was increased incrementally and 1 min movies were recorded at 25 frames/s in phase contrast with 232 pixel binning on a Zeiss Axiocam MRm camera attached to a Zeiss Axio Observer D1 inverted microscope. Tracking analysis was performed using Mediacybernetics ImagePro Premier§. The resulting X-Y coordinate data for each platelet track was differentiated into instantaneous velocities using a Savitzky-Golay algorithm (Savitzky:1964) with a five data point window size and a second-order polynomial implemented into a Mathamatica notebook. These platelet tracks were retained for statistical analysis if the platelet was present for at least 1 s and travelled a total distance greater than 1 lm. Distance travelled in pixels was converted to lm given the camera pixel size=6.45 μm^2, pixel binning, and microscope magnification=400×. Pause times were determined by the amount of time (seconds) a platelets velocity was =0±0.13 μm/s, within the noise. Pause times for all platelet tracks are reported as the mean of the medians. Examples of this analysis for individual platelets and for multiple platelets are provided in the Supporting Information.
(§3) Frame by frame platelet trajectory analysis. Tracking coordinates of individual platelets in units of pixels were exported from ImagePro Premier as a text file and imported into a Mathematica notebook that calculates a Savitzky-Golay first derivative of the total distance traveled over time (Savitzky:1964). The distance was calculated from the X and Y coordinates with the following equation.
(§4) Pause times were determined from the length of time the platelet velocity remained within 0±4 pixel/sec=0.129 μm/sec as illustrated in FIG. 8B. Median pause times were calculated from velocity time profiles for all platelet tracks, stored in a list and translated to histograms for multiple platelets. […]

platelet GP1bα = molecular target: T2, platelet GP1bα (Homo sapiens, UniProt P04275); assay: as above; type: cell-based
T2 construct: perfused at low shear to enable platelets to attach to the surface immobilized domains; endogenous in cells; host or cells: platelets in citrated whole blood of healthy donors
From the text: as §1, §2, §3, §4

A1-1261 = molecular target: T3, A1-1261 (Homo sapiens, UniProt P04275); assay: Binding of free N-terminal peptide to A1-1261 from thermal unfolding enthalpy (tryptophan fluorescence)
T3 construct: A1-1261 (amino acids D1261-P1471); made in house
From the text: This would imply a specific interaction between this N-terminal sequence and the A1 domain when covalently linked in sequence. The only way to examine such a stabilization using spectroscopy was the measurement of thermal unfolding via fluorescence. Since the N-terminal peptide also contains a single tyrosine residue, the excitation wavelength was changed to λ=295 nm in order to measure tryptophan fluorescence and the effect of the peptide on the unfolding of the A1-domain was observed indirectly. Thermal scans of 2 μM A1-1261 were performed as a function of increasing amounts of the N-terminal peptide at 2° Celsius/min. […] Thermal scans were also done in the presence of a peptide with the same amino acid composition, but a scrambled sequence. The inset of FIG. 7A compares the raw fluorescence thermal scans in the presence of 300 μM scrambled and N-terminal peptides. Unfolding in the presence of excess scrambled peptide was equivalent to unfolding in the absence of either peptide. […] Fitting the enthalpy data to a simple single site binding model yields a dissociation constant of ≈46±6 μM.
Prior to all spectroscopic thermal scans, protein samples were equilibrated at 10° Celsius for 15 min to obtain a stable baseline. CD thermal scans between 10 and 95° Celsius were recorded at λ=222 nm using a protein concentration of 1 or 2 μM in a 1 cm quartz cell under moderate stirring. Scan rates were 0.5, 1.0, 1.5 and 2.0° Celsius/min. Integration time for each data point was 20 s with a 1 nm bandwidth. Fluorescence thermal scans between 10 and 95 Celsius were recorded at an emission λ=359 nm after excitation λ=280 nm or λ=295 nm using 2 μM protein in a 1 cm quartz cell with moderate stirring. Scan rates were 0.4 or 0.6, 0.9, 1.6 and 2.0° Celsius/min. At each temperature, relative fluorescence intensity was collected for 4 s and averaged. Thermal scans in the presence of N-terminal peptide at 2.0° Celsius/min were preceded by 1 h incubations at 20° Celsius with 0.02-300 μM peptide.
For the thermal unfolding studies in the presence of peptide, the inventor treated the change in enthalpy of unfolding, ΔHT*^‡ as an observable directly proportional to the degree of binding, X, because the T* was not dependent on peptide concentration.
For the simple single site binding model, A1+P<->A1P, where P is the peptide, the degree of binding is given by
where K is the binding affinity and the free peptide, [P], concentration is given in terms of the total protein, A1T, and peptide, PT, concentrations.

[2] = Far-UV CD spectra, secondary structure content (Example 1); type: physicochemical; conditions: free in solution
From the text: Both proteins show a spectrum dominated by relatively high α-helical content as indicated by the two minima at λ=222 nm and 208 nm. […] By contrast, the spectrum of the N-terminal peptide is dominated by the contribution of random coil-structure and spectrally equivalent to a peptide containing a scrambled sequence but identical amino acid composition.

Effect of free peptide on platelet pause times on immobilized A1-1261 [1]: significant decrease in pause times
Effect of free peptide on platelet translocation velocities on immobilized A1-1261 (platelet GP1bα; 300 μM peptide incubated with immobilized A1-1261, 66 μM in whole blood and buffer): increase in translocation velocities
Effect of peptide on unfolding enthalpy of A1-1238 (A1-1261): did not change the unfolding enthalpy
Kd (A1-1261; single site binding model fit to unfolding enthalpy, 2 μM A1-1261, 2° Celsius/min, read-out: Dissociation constant (KD) of N-terminal peptide binding to A1-1261): 46 µM and ~46 µM
β and random coil content of the sequence [2]: > 80%
Substance: H-QEPGGLVVPPTDAPVSPTTLYVE-OH [N-terminal peptide]
Effect of free peptide on platelet pause times or translocation velocities on immobilized A1-1238 (platelet GP1bα; free peptide added): did not significantly change the pause times or translocation velocities
